Test results: US10975084B2, “KDM5 inhibitors” (Merck Sharp & Dohme Corp., priority 2016, dated 2021)

What follows are compounds tested against KDM5B (Homo sapiens (Human), UniProt Q9UGL1) (assay: KDM5B TR-FRET Enzyme Activity Assay). Settings: LANCE TR-FRET; 5 nM full-length recombinant KDM5B; ten point titration 100000 nM to 5.08 nM.
Assay type: biochemical
Description: KDM5B TR-FRET Enzyme Activity Assay
KDM5B enzymatic activity was determined with the LANCE (Lanthanide Chelate Excite) TR-FRET (Time-resolved fluorescence resonance energy transfer) assay. […] To each well of a white Greiner 1536 Lumitrac 1536 well-plate, 50 nL of compound (100 fold dilution in final assay volume of 5 μL) was dispensed, followed by the addition of 4 μL of 1× assay buffer (50 mM Hepes 7.3, 0.5 mM TCEP, 0.005% Brij-35, 0.02% BSA, 50 μM Na-L-Ascorbate and 2 μM AmFe(II)Sulfate) containing 5 nM of Full-length KDM5B enzyme (recombinant protein from baculovirus-transfected Sf21 cells: full-length KDM5B; MW=176.825 kDa). Following a 30 minutes compound and enzyme incubation in a humidified chamber, each reaction was initiated by the addition of 1 μL 1× assay buffer containing […] biotinylated H3K4Me3 peptide, and 500 nM α-ketoglutarate. The final reaction in each well of 5 μL consists of 5 nM KDM5B, 500 nM biotinylated-peptide, and 500 nM α-ketoglutarate. De-methylation reactions were allowed to proceed for 60 minutes. Reactions were immediately quenched by the addition of 5 uL of 2× Lance Detection Buffer (PerkinElmer) with 0.5 mM EDTA and 2 nM of Eu-anti-H3K4Me1-2 antibody, and 30 nM of Streptavidin-conjugated Dylight 650 detection reagents. After 60 minutes incubation with detection reagents, reaction plates were read on a PerkinElmer EnVision plate reader using standard TR-FRET protocol. Briefly, excitation of donor molecules (Eu-chelate-anti-H3K4Me1-2-antibody) with a laser light source at 337 nm produces energy that can be transferred to Dylight-650 acceptor molecules if this donor:acceptor pair is within close proximity. Fluorescence intensity at both 665 nm (acceptor) and 615 nm (donor) are measured and a TR-FRET ratio calculated for each well (acceptor intensity/donor intensity). IC50 values were determined by 4 parameter robust fit of TR-FRET ratio values vs. (Log 10) compound concentrations.

Chain of KDM5B (Q9UGL1 whole entry): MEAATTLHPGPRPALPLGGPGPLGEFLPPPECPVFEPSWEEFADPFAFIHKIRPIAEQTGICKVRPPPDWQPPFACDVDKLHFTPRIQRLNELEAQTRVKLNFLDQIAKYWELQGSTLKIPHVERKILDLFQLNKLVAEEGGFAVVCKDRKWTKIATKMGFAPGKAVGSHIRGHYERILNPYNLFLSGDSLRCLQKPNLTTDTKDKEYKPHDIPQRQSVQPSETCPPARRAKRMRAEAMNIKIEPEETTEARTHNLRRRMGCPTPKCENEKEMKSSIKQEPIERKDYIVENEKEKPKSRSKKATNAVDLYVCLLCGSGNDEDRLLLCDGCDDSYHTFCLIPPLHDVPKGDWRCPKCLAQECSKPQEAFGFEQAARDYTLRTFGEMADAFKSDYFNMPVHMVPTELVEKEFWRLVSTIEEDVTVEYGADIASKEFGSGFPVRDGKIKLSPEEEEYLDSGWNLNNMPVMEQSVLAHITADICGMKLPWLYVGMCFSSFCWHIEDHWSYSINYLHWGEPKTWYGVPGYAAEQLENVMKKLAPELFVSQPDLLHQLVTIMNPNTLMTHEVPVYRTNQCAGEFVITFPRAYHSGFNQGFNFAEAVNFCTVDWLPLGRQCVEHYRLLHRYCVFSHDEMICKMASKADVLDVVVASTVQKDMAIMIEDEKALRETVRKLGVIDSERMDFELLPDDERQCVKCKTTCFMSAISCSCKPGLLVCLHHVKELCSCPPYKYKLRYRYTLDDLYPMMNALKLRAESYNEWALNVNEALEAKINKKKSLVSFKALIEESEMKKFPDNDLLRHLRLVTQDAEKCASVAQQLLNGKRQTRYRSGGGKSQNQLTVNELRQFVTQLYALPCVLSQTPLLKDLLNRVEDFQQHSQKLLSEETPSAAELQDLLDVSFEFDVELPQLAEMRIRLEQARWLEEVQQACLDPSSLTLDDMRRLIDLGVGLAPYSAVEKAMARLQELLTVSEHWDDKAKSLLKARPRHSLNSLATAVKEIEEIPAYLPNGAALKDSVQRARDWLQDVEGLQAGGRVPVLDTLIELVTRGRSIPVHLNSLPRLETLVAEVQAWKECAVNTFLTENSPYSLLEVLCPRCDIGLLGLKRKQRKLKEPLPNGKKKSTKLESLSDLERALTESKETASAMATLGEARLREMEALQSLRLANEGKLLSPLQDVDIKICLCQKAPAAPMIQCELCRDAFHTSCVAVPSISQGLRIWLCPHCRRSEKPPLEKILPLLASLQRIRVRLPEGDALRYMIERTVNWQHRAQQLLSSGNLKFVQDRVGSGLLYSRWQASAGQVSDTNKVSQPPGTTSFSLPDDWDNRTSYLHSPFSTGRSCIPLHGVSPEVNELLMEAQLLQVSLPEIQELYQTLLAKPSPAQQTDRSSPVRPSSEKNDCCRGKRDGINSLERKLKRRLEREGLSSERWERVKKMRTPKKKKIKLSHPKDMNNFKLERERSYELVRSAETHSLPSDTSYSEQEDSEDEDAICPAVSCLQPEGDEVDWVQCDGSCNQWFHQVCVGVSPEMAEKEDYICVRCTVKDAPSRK

IC50 [nM]	Compound
14.7	CC(C)c1c(-c2ccc3ncccc3c2)[nH]c2ncnn2c1=O [Example 11-74, 6-(1-methylethyl)-5-quinolin-6-yl[1,2,4]triazolo[1,5-a]pyrimidin-7(4H)-one]
122	CC(C)c1c(-c2ccc(-n3cccn3)cc2F)[nH]c2ncnn2c1=O [Example 11-98, 5-[2-fluoro-4-(1H-pyrazol-1-yl)phenyl]-6-(1-methylethyl)[1,2,4]triazolo[1,5-a]pyrimidin-7(4H)-one]
43.5	CC(C)c1c(-c2cncc(C(C)(C)O)c2)[nH]c2ncnn2c1=O [Example 11-121, 5-[5-(1-hydroxy-1-methylethyl)pyridin-3-yl]-6-(1-methylethyl)[1,2,4]triazolo[1,5-a]pyrimidin-7(4H)-one]
208	CC(C)c1c(-c2cccc3[nH]ncc23)[nH]c2ncnn2c1=O [Example 11-71, 5-(1H-indazol-4-yl)-6-(1-methylethyl)[1,2,4]triazolo[1,5-a]pyrimidin-7(4H)-one]
81300	O=c1cc(C2CCOCC2)[nH]c2ncnn12 [Example 8-20, 5-(tetrahydro-2H-pyran-4-yl)[1,2,4]triazolo[1,5-a]pyrimidin-7(4H)-one]
20.1	CC(C)c1c(-c2ccc(N3CCCC3)cc2)[nH]c2ncnn2c1=O [Example 11-94, 6-(1-methylethyl)-5-(4-pyrrolidin-1-ylphenyl)[1,2,4]triazolo[1,5-a]pyrimidin-7(4H)-one]
2170	Cc1nn(C)c(C)c1-c1[nH]c2ncnn2c(=O)c1C(C)C [Example 11-61, 6-(1-methylethyl)-5-(1,3,5-trimethyl-1H-pyrazol-4-yl)[1,2,4]triazolo[1,5-a]pyrimidin-7(4H)-one]
254	CC(C)c1c(C2=COCCC2)[nH]c2ncnn2c1=O [Example 11-30, 5-(3,4-dihydro-2H-pyran-5-yl)-6-(1-methylethyl)[1,2,4]triazolo[1,5-a]pyrimidin-7(4H)-one]
5.08	CC(C)c1c(-c2cnn(CC3CC3)c2)[nH]c2ncnn2c1=O [Example 11-14, 5-[1-(cyclopropylmethyl)-1H-pyrazol-4-yl]-6-(1-methylethyl)[1,2,4]triazolo[1,5-a]pyrimidin-7(4H)-one]
160	CC(C)c1c(-c2ccc(F)cc2)[nH]c2ncnn2c1=O [Example 11-11, 5-(4-fluorophenyl)-6-(1-methylethyl)[1,2,4]triazolo[1,5-a]pyrimidin-7(4H)-one]
13400	O=c1cc(C(F)(F)F)[nH]c2ncnn12 [Example 8-3, 5-(trifluoromethyl)[1,2,4]triazolo[1,5-a]pyrimidin-7(4H)-one]
657	CC(C)c1c(-c2ccsc2)[nH]c2ncnn2c1=O [Example 11-138, 6-(1-methylethyl)-5-thiophen-3-yl[1,2,4]triazolo[1,5-a]pyrimidin-7(4H)-one]
55.4	COc1cccc(-c2[nH]c3ncnn3c(=O)c2C(C)C)c1 [Example 11-57, 5-(3-methoxyphenyl)-6-(1-methylethyl) [1,2,4]triazolo[1,5-a]pyrimidin-7(4H)-one]
23.8	CC(C)c1c(-c2cnc3ccccc3c2)[nH]c2ncnn2c1=O [Example 11-76, 6-(1-methylethyl)-5-quinolin-3-yl[1,2,4]triazolo[1,5-a]pyrimidin-7(4H)-one]
16.6	CC(C)c1c(-c2ccc(N3CCN(C)CC3)cc2)[nH]c2ncnn2c1=O [Example 11-106, 6-(1-methylethyl)-5-[4-(4-methylpiperazin-1-yl)phenyl][1,2,4]triazolo[1,5-a]pyrimidin-7(4H)-one]
193	CC(C)c1c(-c2cnco2)[nH]c2ncnn2c1=O [Example 11-139, 6-(1-methylethyl)-5-(1,3-oxazol-5-yl)[1,2,4]triazolo[1,5-a]pyrimidin-7(4H)-one]

IC50 [nM]	Compound
7.3	CC(C)c1c(-c2cnn(Cc3ccccc3)c2)[nH]c2ncnn2c1=O [Example 11-9, 5-(1-benzyl-1H-pyrazol-4-yl)-6-(1-methylethyl)[1,2,4]triazolo[1,5-a]pyrimidin-7(4H)-one]
29200	Cn1ccc(-c2cc(=O)n3ncnc3[nH]2)n1 [Example 8-13, 5-(1-methyl-1H-pyrazol-3-yl)[1,2,4]triazolo[1,5-a]pyrimidin-7(4H)-one]
9.79	CC(C)c1c(-c2ccc(N3CCNCC3)cc2)[nH]c2ncnn2c1=O [Example 11-118, 6-(1-methylethyl)-5-(4-piperazin-1-ylphenyl)[1,2,4]triazolo[1,5-a]pyrimidin-7(4H)-one]
91.8	CC(C)c1c(-c2cccc(Cl)c2)[nH]c2ncnn2c1=O [Example 11-64, 5-(3-chlorophenyl)-6-(1-methylethyl)[1,2,4]triazolo[1,5-a]pyrimidin-7(4H)-one]
44.4	CC(C)c1c(-c2ccc(C3CC3)nc2)[nH]c2ncnn2c1=O [Example 11-133, 5-(6-cyclopropylpyridin-3-yl)-6-(1-methylethyl)[1,2,4]triazolo[1,5-a]pyrimidin-7(4H)-one]
413	CC(C)c1c(-c2cccs2)[nH]c2ncnn2c1=O [Example 11-147, 6-(1-methylethyl)-5-thiophen-2-yl[1,2,4]triazolo[1,5-a]pyrimidin-7(4H)-one]
31900	CCc1[nH]c2ncnn2c(=O)c1C [Example 8-18, 5-ethyl-6-methyl[1,2,4]triazolo[1,5-a]pyrimidin-7(4H)-one]
21.2	CC(C)c1c(-c2cccc(-n3cccn3)c2)[nH]c2ncnn2c1=O [Example 11-83, 6-(1-methylethyl)-5-[3-(1H-pyrazol-1-yl)phenyl][1,2,4]triazolo[1,5-a]pyrimidin-7(4H)-one]
41.2	CC(C)c1c(-c2ccncc2)[nH]c2ncnn2c1=O [Example 11-24, 6-(1-methylethyl)-5-pyridin-4-yl[1,2,4]triazolo[1,5-a]pyrimidin-7(4H)-one]
11100	Cc1noc(C)c1-c1[nH]c2ncnn2c(=O)c1C(C)C [Example 11-34, 5-(3,5-dimethylisoxazol-4-yl)-6-(1-methylethyl)[1,2,4]triazolo[1,5-a]pyrimidin-7(4H)-one]
1270	Cn1cc(-c2[nH]c3ncnn3c(=O)c2C(C)(C)C)cn1 [Example 11-6, 6-tert-butyl-5-(1-methyl-1H-pyrazol-4-yl)[1,2,4]triazolo[1,5-a]pyrimidin-7(4H)-one]
76.2	CC(C)c1c(-c2cc(-c3ccccc3)cs2)[nH]c2ncnn2c1=O [Example 11-144, 6-(1-methylethyl)-5-(4-phenylthiophen-2-yl)[1,2,4]triazolo[1,5-a]pyrimidin-7(4H)-one]
12.6	CC(C)c1c(-c2ccc(C(=O)N(C)C)cc2)[nH]c2ncnn2c1=O [Example 11-86, N,N-dimethyl-4-[6-(1-methylethyl)-7-oxo-4,7-dihydro[1,2,4]triazolo[1,5-a]pyrimidin-5-yl]benzamide]
103	CC(C)c1c(-c2cncnc2)[nH]c2ncnn2c1=O [Example 11-26, 6-(1-methylethyl)-5-pyrimidin-5-yl[1,2,4]triazolo[1,5-a]pyrimidin-7(4H)-one]
17	CC(C)c1c(-c2ccnc(C(F)(F)F)c2)[nH]c2ncnn2c1=O [Example 11-120, 6-(1-methylethyl)-5-[2-(trifluoromethyl)pyridin-4-yl][1,2,4]triazolo[1,5-a]pyrimidin-7(4H)-one]
